Laboratory results from ChEMBL document CHEMBL3044787, “Carboxylesterase of the Rice Stem Borer, Chilo suppressalis WALKER (Lepidoptera: Pyralidae), Responsible for Fenitrothion Resistance as a Sequestering Protein” (J Pestic Sci, 1996).

How the values were obtained:
[1] = Binding affinity to carboxylesterase in organophosphate-resistant Chilo suppressalis (rice stem borer) midgut soluble fraction assessed as inhibition of [14C]fenitroxon-sequestering activity at 10 umol/ml; details: probe [14C]fenitroxon
Chilo suppressalis [2] = assay: Insecticidal activity against organophosphate-resistant Chilo suppressalis (rice stem borer) fifth-instar larvae assessed as mortality after 24 hr; format: functional
Chilo suppressalis [3] = assay: Insecticidal activity against wild-type Chilo suppressalis (rice stem borer) fifth-instar larvae assessed as mortality after 24 hr; format: functional
Haemolymph [4] = assay: Drug uptake in haemolymph of wild-type Chilo suppressalis (rice stem borer) fifth-instar larvae assessed per mg protein by liquid scintillation counting; format: ADME
Carboxylesterase = target: T1, Carboxylesterase (Loxostege sticticalis, UniProt B3TNN2); assay: Inhibition of carboxylesterase major isoform in organophosphate-resistant Chilo suppressalis (rice stem borer) midgut soluble fraction at 15 ng
T1 sequence (B3TNN2 whole entry): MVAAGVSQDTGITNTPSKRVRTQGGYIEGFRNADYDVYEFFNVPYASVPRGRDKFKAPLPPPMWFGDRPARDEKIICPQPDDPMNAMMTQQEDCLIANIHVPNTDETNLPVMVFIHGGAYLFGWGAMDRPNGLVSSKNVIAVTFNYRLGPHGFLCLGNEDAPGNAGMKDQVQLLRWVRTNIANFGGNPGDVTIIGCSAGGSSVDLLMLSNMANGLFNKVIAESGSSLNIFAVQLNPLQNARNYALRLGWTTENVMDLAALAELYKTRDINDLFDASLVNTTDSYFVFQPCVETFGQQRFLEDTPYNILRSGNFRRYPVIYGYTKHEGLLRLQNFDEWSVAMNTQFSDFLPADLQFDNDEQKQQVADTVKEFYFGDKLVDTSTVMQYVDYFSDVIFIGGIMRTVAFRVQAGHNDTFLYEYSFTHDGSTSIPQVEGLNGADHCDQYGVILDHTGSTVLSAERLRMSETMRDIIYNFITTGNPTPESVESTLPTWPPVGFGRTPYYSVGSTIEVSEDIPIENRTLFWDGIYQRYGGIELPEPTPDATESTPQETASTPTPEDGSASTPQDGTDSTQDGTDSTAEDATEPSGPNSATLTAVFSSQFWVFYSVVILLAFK

[5] = Drug uptake in cuticle/muscle of wild-type Chilo suppressalis (rice stem borer) fifth-instar larvae assessed per mg protein by liquid scintillation counting; format: ADME
Fat body [6] = assay: Drug uptake in fat body of organophosphate-resistant Chilo suppressalis (rice stem borer) fifth-instar larvae assessed per mg protein by liquid scintillation counting; format: ADME
Malpighian tubule [7] = assay: Drug uptake in Malpighian tubules of organophosphate-resistant Chilo suppressalis (rice stem borer) fifth-instar larvae assessed per mg protein by liquid scintillation counting; format: ADME
Malpighian tubule [8] = assay: Drug uptake in Malpighian tubules of wild-type Chilo suppressalis (rice stem borer) fifth-instar larvae assessed per mg protein by liquid scintillation counting; format: ADME
Midgut [9] = assay: Drug uptake in midgut of organophosphate-resistant Chilo suppressalis (rice stem borer) fifth-instar larvae assessed per mg protein by liquid scintillation counting; format: ADME, tissue-based
Fat body [10] = assay: Drug uptake in fat body of wild-type Chilo suppressalis (rice stem borer) fifth-instar larvae assessed per mg protein by liquid scintillation counting; format: ADME
Haemolymph [11] = assay: Drug uptake in haemolymph of organophosphate-resistant Chilo suppressalis (rice stem borer) fifth-instar larvae assessed per mg protein by liquid scintillation counting; format: ADME
Midgut [12] = assay: Drug uptake in midgut of wild-type Chilo suppressalis (rice stem borer) fifth-instar larvae assessed per mg protein by liquid scintillation counting; format: ADME, tissue-based
[13] = Drug uptake in cuticle/muscle of organophosphate-resistant Chilo suppressalis (rice stem borer) fifth-instar larvae assessed per mg protein by liquid scintillation counting; format: ADME

With CC(=O)Oc1cccc2ccccc12 [ALPHA-NAPHTHYLACETATE] the inhibition at 10 umol/ml [1] was 61.8%.

With COP(=S)(OC)Oc1ccc([N+](=O)[O-])c(C)c1 [FENITROTHION] the LD50 (Chilo suppressalis [2]) was 77.3 mg/kg and the LD50 (Chilo suppressalis [3]) was 2.42 mg/kg.

In the case of COP(=O)(OC)Oc1ccc([N+](=O)[O-])c(C)c1 [FENITROXON], the Drug uptake (Haemolymph [4]) is reported as 0.042 nmol/h, the “inhibition (INH)” value (Carboxylesterase) is reported as “Active” and the Drug uptake [5] is reported as 0.044 nmol/h. The Drug uptake (Fat body [6]) was 0.35 nmol/h, the Drug uptake (Malpighian tubule [7]) was 2.1 nmol/h and the Drug uptake (Malpighian tubule [8]) was 0.24 nmol/h. The Drug uptake (Midgut [9]) was 1.5 nmol/h, the Drug uptake (Fat body [10]) was 0.052 nmol/h and the Drug uptake (Haemolymph [11]) was 0.1 nmol/h. The Drug uptake (Midgut [12]) was 0.22 nmol/h and the Drug uptake [13] was 0.24 nmol/h.
